In patent publication US20130302344A1, “METHODS AND MEDICAMENTS FOR THE TREATMENT OF GOUT OR PSEUDOGOUT” (TOPOTARGET SWITZERLAND SA, priority 2006, published 2013):
“Also recorded” adds a separate entry of the source.

What was measured:
[1] = tested on: mouse peritoneal exudate cells; assay: IL-1β production by mouse peritoneal macrophages (ELISA); type: cell-based
Protocol: (§1) BALB/C mice were intraperitoneally injected with a 4% solution of thioglycollate. Six days later, peritoneal exudate cells (PEC) were collected by washing the peritoneal cavity with phosphate buffer saline. Cells were distributed in wells of tissue culture 12 well plates (10^6 cells/well). Non-adherent cells were washed and adherent cells were treated. with 1 μg/ml of Ultrapure LPS (Invivogen) in the presence or the absence of 200 nM of 17-AAG (Invivogen). (a) After overnight culture, the supernatants were collected and used for determination of TNF by ELISA. (b, c) Fresh medium was added on the cells in the presence or the absence of 2 mM of ATP or 100 μg/ml MSU. After 5 hours, the supernatants were collected and IL-1β was determined by ELISA. (d) Mouse peritoneal macrophages were treated with 500 ng/ml of Ultrapure LPS (Invivogen) in the presence or the absence of 50 nM of 17-DMAG (Invivogen). 2 hours later, cells were stimulated with 500 μg/ml MSU. After 4 hours, the supernatants were collected and IL-1β was determined by ELISA. (e) Human blood monocytes were treated with 1 μg/ml of Ultrapure LPS (Invivogen) in the presence or the absence of graded doses of 17-DMAG (Invivogen). After overnight culture, cells were stimulated with 100 μg/ml MSU. After 6 hours, the supernatants were collected and IL-1β was determined by ELISA.
Eight to twelve week-old mice of indicated genotypes were injected i.p. with 4% thioglycollate solution, and macrophages were collected by peritoneal lavage 3-6 days later. Cells were plated at the density of 7×10^5 cells in twelve-well dishes and. non-adherent cells were removed after 3 h. Cells were cultured in RPMI complemented with 10% FCS, sodium pyruvate, penicillin/streptomycin and L-glutamin. All cells were stimulated in OptiMEM medium as described above. Caspase-1 was analyzed using an antibody from Santa Cruz Biotechnology (se-514) and ASC using an antibody as described previously^34. The antibody against mouse IL-1β[…]was a gift from Roberto Solari, Glaxo. […]

[2] = tested on: mouse peritoneal exudate cells; assay: TNF production by LPS-treated mouse peritoneal exudate cells (ELISA); type: cell-based; conditions: 200 nM, 1 μg/ml LPS overnight; FIG. 8a
Protocol: as §1, with “2 hours later, cells were stimulated with 500 μg/ml MSU.” left out, “(e) Human blood monocytes were treated with 1 μg/ml of Ultrapure LPS (Invivogen) in the presence or the absence of graded doses of 17-DMAG (Invivogen). After overnight culture, cells were stimulated with 100 μg/ml MSU.” left out
Eight to twelve week-old mice of indicated genotypes were injected i.p. with 4% thioglycollate solution, and macrophages were collected by peritoneal lavage 3-6 days later. […] Caspase-1 was analyzed using an antibody from Santa Cruz Biotechnology (se-514) and ASC using an antibody as described previously^34. […]

[3] = tested on: human blood monocytes; assay: IL-1β production by MSU-stimulated human blood monocytes (ELISA); type: cell-based; conditions: graded doses, LPS overnight, 100 μg/ml MSU 6 h; FIG. 8e
Protocol: as §1

[4] = tested on: MSU-induced neutrophil recruitment; assay: MSU crystal-induced aseptic peritonitis, neutrophil recruitment (FACS); type: in vivo, mouse
Protocol: Aseptic peritonitis was induced in female C57BL/6 mice by injection of 500 μg monosodium urate crystals (MSU) with PBS, 200 μg anakinra (Kineret, Amgen Inc., Thousand Oaks, USA), 200 μg anti-IL-1RI monoclonal antibody (BD Pharmingen, San Jose, USA), 200 μg anti-IL-1α monoclonal antibody (Biolegend, San Diego, USA), 200 μg anti-IL-1β monoclonal antibody ((Biolegend, San Diego, USA), or combination of 200 μg anti-IL-1α monoclonal antibody and 200 μg anti-IL-1β monoclonal antibody. After 6 h, mice were killed and the peritoneal cavity was washed with 10 ml of cold PBS. The lavage fluids were analyzed for neutrophil recruitment by FACS using the neutrophil markers CD11b and Gr1 (Ly-6G). Values are±s.e.m. of total neutrophil counts with 4-5 animals per group, Unpaired Students t test was used to calculate P value. […] The lavage fluids were analyzed for neutrophil recruitment by FACS using the neutrophil markers CD11b and Gr1 (Ly-6G), Values are±s.e.m. of total neutrophil counts with 4-5 animals per group. […] The lavage fluids were analyzed for neutrophil recruitment by FACS using the neutrophil markers CD11b and Gr1 (Ly-6G). […] The lavage fluids were analysed for PMN recruitment by FACS using the neutrophil marker Ly-6G and CD11b (BD Pharmingen).

[5] = tested on: gout; assay: Case reports of patients with proven gout; type: in vivo, human; conditions: for adverse effects of earlier gout treatments: patient history in cases 1-4, doses as stated per case; for response of gouty arthritis to earlier treatment: cases 3 and 4, prednisone 30 mg daily tapering over 7 days, colchicine 1 mg daily; for response of acute gouty arthritis / recurrence on follow-up: gout patients; for response of acute gouty arthritis: anakinra 100 mg daily for 2-3 days (cases 1-3); for recurrence on follow-up: one to two months after anakinra
Protocol: Four patients with proven gout were treated with anakinra (Kineret).

[6] = tested on: THP1 cells; assay: IL-1β maturation in PMA-primed THP1 cells stimulated with crystals or ATP (Western blot); type: cell-based, human
Protocol: a-c, THP1 cells were stimulated for 6 h with the indicated amounts/ml of MSU crystals (a), CPPD (b) or with 50 μg/ml of pure LPS, MSU, allopurinol crystals, CPPD crystals, diamond crystals, aluminum particles, zymosan, crude preparations of LPS, or 5 mM of extracellular ATP as indicated (c). Supernatants (SN) were analyzed for the presence of mature IL-1β, IL-18 or caspase-1, and cell extracts (Cell) for the presence of proIL-1β and proIL-18. d, human monocytes were stimulated with 50 μg/ml of the indicated crystals for 6 h and analyzed by Western blot for IL-1β activation or by ELISA for released. caspase-1 and IL-1β.
THP1 cells were pre-treated with the P2X antagonist pyridoxal-phosphate-6-azophenyl-2′,4′-disulfonic acid (PPADS, Alexis) for 30 min and subsequently stimulated for 6 h with MSU crystals (50 μg/ml). Supernatants (SN) were analyzed for the presence of mature IL-1β and cell extracts (Cell) for the presence of proIL-1β.
THP1 cells were stimulated with MSU, CPPD or ATP in the presence or absence of colchicine (colch). Maturation of IL-1β was analyzed by Western Blot.
(§2) THP1 were stimulated for 3 h with 0.5 μM of PMA the day before stimulation as described^10. This treatment increases the phagocytic properties of the cells and induces a constitutive production of proIL-1β^33. Human monocytes were purified as described before^30. All cells were stimulated in OptiMEM medium as indicated. Human mature IL-1β was detected with a specific antibody directed. against the cleaved epitope (D116) from Cell Signalling, or with an Enzyme-linked immunoabsorbent assay (ELISA) from BD bioscience. TNF and IL-6 were detected by an ELISA from ImmunoTools and caspase-1 by an ELISA from Alexis. IL-18 was detected. with an antibody from MBL (D044-3) and. Caspase-1 with an antibody from Santa Cruz Biotechnology (sc-622), The antibody against human IL-1β[…] was a gift from Roberto Solari, Glaxo. z-YVAD-fmk was purchased from Alexis Biochemicals. IL-1ra (anakinra, Kineret) was from Amgen (thousand Oaks, USA).

[7] = tested on: MSU-induced inflammation; conditions: intravenous pretreatment; cited from earlier work
[8] = oral; cited from earlier work
[9] = tested on: THP1 cells; assay: TNF-α production by stimulated THP1 cells (ELISA); type: cell-based, human; conditions: FIG. 5a
Protocol: (§3) a, THP1 cells were stimulated with MSU, CPPD or Zymosan (Zym) for the indicated, times in the presence or absence of the caspase-1 inhibitor zYVAD-fink. Supernatants were analyzed for TNF-α (gray bars) and IL-1β (black bars) production by ELISA. b, human monocytes were incubated with MSU or CPPD in the presence of two concentrations of IL-1Ra. TNF-α and IL-6 production was monitored by ELISA.
as §2

[10] = tested on: human monocytes; assay: TNF-α and IL-6 production by human monocytes incubated with MSU or CPPD (ELISA); type: cell-based; conditions: two concentrations of IL-1Ra, FIG. 5b
Protocol: as §3, §2

Which results are given for `C=CCNC1=C2C[C@@H](C)C[C@H](OC)[C@H](O)[C@@H](C)/C=C(\C)[C@H](OC(N)=O)[C@@H](OC)/C=C\C=C(/C)C(=O)NC(=CC1=O)C2=O` [17-AAG, 17-(Allylamino)-17-demethoxygeldanamycin]?
production of IL-1β by mouse macrophages stimulated by MSU crystals ([1]; 200 nM, LPS overnight, 100 μg/ml MSU 5 h, FIG. 8c): almost completely inhibited; production of IL-1β by mouse macrophages stimulated by ATP ([1]; 200 nM, LPS overnight, 2 mM ATP 5 h, FIG. 8b): almost completely inhibited; reduction of TNFα production [2]: less than 50%

For `CO[C@H]1/C=C\C=C(/C)C(=O)NC2=CC(=O)C(NCCN(C)C)=C(C[C@@H](C)C[C@H](OC)[C@H](O)[C@@H](C)/C=C(\C)[C@@H]1OC(N)=O)C2=O` [17-DMAG, 17-(Dimethylaminoethylamino)-17-demethoxygeldanamycin], which “production of IL-1β by mouse macrophages stimulated by MSU crystals” value ([1]; 50 nM, LPS 2 h, 500 μg/ml MSU 4 h, FIG. 8d) is on record?
The value was “inhibited”.

And the “production of IL-1β by human blood monocytes stimulated by MSU crystals” value [3]?
The value was “inhibited”.

What about the “neutrophil influx in response to MSU” value ([4]; female BALB/C mice, 25 mg/kg intraperitoneally 1 h before 500 μg MSU, FIG. 14) of the same compound?
The value was “reduced”.

Which “adverse effects of earlier gout treatments” value (from here on “adverse effects”) [5] does the source give for `Oc1ncnc2[nH]ncc12` [allopurinol] here?
Its value is “severe cutaneous reaction; also recorded: acute gout developed after the first dose; also recorded: induced flare-ups of arthritis”.

Which “adverse effects” value [5] does the source give for `CCc1oc2ccccc2c1C(=O)c1cc(Br)c(O)c(Br)c1` [benzbromazone] here?
The value was “renal stones”.

With `COc1cc2c(c(OC)c1OC)-c1ccc(OC)c(=O)cc1[C@@H](NC(C)=O)CC2` [colchicine] as the compound, how does the “IL-1β activation by extracellular ATP” value ([6]; FIG. 6) read?
The value was “did not affect”.

What about the “crystal-induced processing of IL-1β” value ([6]; MSU or CPPD, pretreatment, FIG. 6) of the same compound?
Its value is “completely blocked”.

And the “response of gouty arthritis to earlier treatment” value [5]?
Its value is “ineffective”.

And the “adverse effects” value [5]?
Its value is “rectal bleeding; also recorded: diarrhea”.

And the “adverse effects” value ([5]; listed as Colchicine)?
Its value is “intolerable diarrhea; also recorded: rapid onset of diarrhea”.

What about the “inflammation after intraarticular MSU injections” value [7] of the same compound?
The value was “greatly reduces inflammation”.

What about the “side effects limiting use” value [8] of the same compound?
The value was “nausea and abdominal pain”.

For `O=C(O)Cc1ccccc1Nc1c(Cl)cccc1Cl` [diclofenac], which “adverse effects” value [5] is on record?
Its value is “gastrointestinal side effects including one episode of G-I hemorrhage”.

With `C[C@]12C=CC(=O)C=C1CC[C@@H]1[C@@H]2C(=O)C[C@@]2(C)[C@H]1CC[C@]2(O)C(=O)CO` [prednisone] as the compound, how does the “response of gouty arthritis to earlier treatment” value [5] read?
The value was “the arthritis remained active”.

With `COC(=O)C[C@H](NC(=O)[C@H](C)NC(=O)[C@@H](NC(=O)[C@H](Cc1ccc(O)cc1)NC(=O)OCc1ccccc1)C(C)C)C(=O)CF` [zYVAD-fmk] as the compound, how does the “MSU-induced IL-1β activation” value ([6]; MSU crystals, 6 h, FIG. 1a) read?
Its value is “completely blocked”.

What about the “TNF-α production by the TLR2 agonist Zymosan” value [9] of the same compound?
The value was “without affecting”.

And the “reduction of TNF-α production induced by MSU and CPPD” value [9]?
The value was “more than 50%”.

What does the source list for “anakinra: IL-1 receptor type I (IL-1RI) antagonist, IL-1Ra also known as anakinra, marketed under the name Kineret”?
IL-6 production by human monocytes [10]: significantly affected; TNF-α production by human monocytes [10]: significantly affected; neutrophil influx ([4]; female C57BL/6 mice, 500 μg MSU, 200 μg of each agent, 6 h, FIG. 12): almost entirely prevented; response of acute gouty arthritis [5]: complete resolution of arthritis by the second day; also recorded: responded rapidly; response of acute gouty arthritis ([5]; listed as Anakinra): rapid reduction in joint pain over 48 h; response of acute gouty arthritis ([5]; listed as Anankinra): rapid resolution of signs and symptoms of arthritis; recurrence on follow-up [5]: no recurrence of arthritis; also recorded: asymptomatic two months later; recurrence on follow-up ([5]; listed as Anakinra): No acute flares; recurrence on follow-up ([5]; listed as Anankinra): no further flare-ups
